Values quoted from earlier work, collected in patent publication US20170035778A1, “FORMULATIONS AND USES FOR MICROPARTICLE DELIVERY OF METALLOPORPHYRINS” (The Board of Trustees of the Leland Stanford Junior …, priority 2015, published 2017).

Settings: SnMP within 24 h of birth in premature newborns

tin mesoporphyrin [SnMP]
reduction of the requirement for phototherapy compared with control subjects: approximately 75%
